From patent US20230085307A1, “PYRIDAZINONE COMPOUND AND HERBICIDE” (NISSAN CHEMICAL CORPORATION, priority 2019, published 2023)

Experiments:
late watergrass [1] = assay: Test Example 1: herbicidal activity, application before weed generation under submerged conditions (Table 16, symbol A); format: in vivo, late watergrass (Echinochloa oryzicola); details: amount of applied herbicide 320 g/ha
How it was run: (§1)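 Alluvial soil was flooded to 4 cm depth, weed seeds were sown mixed and 2.5-leaf rice seedlings were transplanted. On sowing day, the compound's emulsion, diluted in water to a set dose, was applied to the water surface. Plants grew at 25–30 °C and were scored 0–5 after three weeks.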

Japanese bulrush [2] = assay: Test Example 1: herbicidal activity, application before weed generation under submerged conditions (Table 16, symbol B); format: in vivo, Japanese bulrush (Schoenoplectus juncoides); details: amount of applied herbicide 320 g/ha
How it was run: as §1

oval-leafed pondweed [3] = assay: Test Example 1: herbicidal activity, application before weed generation under submerged conditions (Table 16, symbol C); format: in vivo, oval-leafed pondweed (Monochoria vaginalis); details: amount of applied herbicide 320 g/ha
How it was run: as §1

late watergrass [4] = assay: Test Example 2: herbicidal activity, application during weed generation under submerged conditions (Table 17, symbol A); format: in vivo, late watergrass (Echinochloa oryzicola); details: AAH 320 g/ha; application during weed generation, submerged conditions
How it was run: (§2)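 Steps: fill Wagner pots with alluvial soil; add water to give 4 cm depth; sow the species mixed; grow under glass at 25–30° C.; at 1–2 leaves apply water-diluted emulsion formulation to the water surface at a fixed herbicide amount; score after 3 weeks.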

Japanese bulrush [5] = assay: Test Example 2: herbicidal activity, application during weed generation under submerged conditions (Table 17, symbol B); format: in vivo, Japanese bulrush (Schoenoplectus juncoides); details: AAH 320 g/ha; application during weed generation, submerged conditions
How it was run: as §2

oval-leafed pondweed [6] = assay: Test Example 2: herbicidal activity, application during weed generation under submerged conditions (Table 17, symbol C); format: in vivo, oval-leafed pondweed (Monochoria vaginalis); details: AAH 320 g/ha; application during weed generation, submerged conditions
How it was run: as §2

barnyard grass [7] = assay: Test Example 3: herbicidal effect by foliage application, Wagner pot (Table 18, symbol H); format: in vivo, barnyard grass (Echinochloa crus-galli); details: 320 g/ha
How it was run: (§3)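 Plants were sown in alluvial soil held under 0.1–0.5 cm standing water and grown 14 days in a greenhouse at 25–30 °C. An emulsifiable formulation, water-diluted to the set dose, was then sprayed onto the foliage, and effects were scored three weeks later using previously defined criteria.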

Chinese sprangletop = assay: Test Example 3: herbicidal effect by foliage application, Wagner pot (Table 18, symbol D); format: in vivo, chinese sprangletop (Leptochloa chinensis); details: 320 g/ha
How it was run: as §3

rice flat sedge = assay: Test Example 3: herbicidal effect by foliage application, Wagner pot (Table 18, symbol E); format: in vivo, rice flat sedge (Cyperus iria); details: 320 g/ha
How it was run: as §3

southern crabgrass = assay: Test Example 5: herbicidal effect by foliage application, plastic box (Table 20, symbol F); format: in vivo, southern crabgrass (Digitaria ciliaris); details: foliage application after 14-day growth, evaluated three weeks after application
How it was run: (§4)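 Sow seeds spot-wise in sterilized diluvial soil; cover with ~1.5 cm soil. Grow 14 days in greenhouse, 25° C. to 30° C. Spray foliage with emulsion diluted to predetermined amount. Rate effect after 3 weeks.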

green foxtail = assay: Test Example 5: herbicidal effect by foliage application, plastic box (Table 20, symbol G); format: in vivo, green foxtail (Setaria viridis); details: foliage application after 14-day growth, evaluated three weeks after application
How it was run: as §4

barnyard grass [8] = assay: Test Example 5: herbicidal effect by foliage application, plastic box (Table 20, symbol H); format: in vivo, barnyard grass (Echinochloa crus-galli); details: foliage application after 14-day growth, evaluated three weeks after application
How it was run: as §4

wild oat = assay: Test Example 5: herbicidal effect by foliage application, plastic box (Table 20, symbol I); format: in vivo, wild oat (Avena fatua); details: foliage application after 14-day growth, evaluated three weeks after application
How it was run: as §4

blackgrass = assay: Test Example 5: herbicidal effect by foliage application, plastic box (Table 20, symbol J); format: in vivo, blackgrass (Alopecurus myosuroides); details: foliage application after 14-day growth, evaluated three weeks after application
How it was run: as §4

Italian ryegrass = assay: Test Example 5: herbicidal effect by foliage application, plastic box (Table 20, symbol K); format: in vivo, Italian ryegrass (Lolium multiflorum); details: foliage application after 14-day growth, evaluated three weeks after application
How it was run: as §4

windgrass = assay: Test Example 5: herbicidal effect by foliage application, plastic box (Table 20, symbol L); format: in vivo, windgrass (Apera spica-venti); details: foliage application after 14-day growth, evaluated three weeks after application
How it was run: as §4

velvetleaf = assay: Test Example 5: herbicidal effect by foliage application, plastic box (Table 20, symbol M); format: in vivo, velvetleaf (Abutilon theophrasti); details: foliage application after 14-day growth, evaluated three weeks after application
How it was run: as §4

redroot pigweed = assay: Test Example 5: herbicidal effect by foliage application, plastic box (Table 20, symbol N); format: in vivo, redroot pigweed (Amaranthus retroflexus); details: foliage application after 14-day growth, evaluated three weeks after application
How it was run: as §4

lambsquarters = assay: Test Example 5: herbicidal effect by foliage application, plastic box (Table 20, symbol O); format: in vivo, lambsquarters (Chenopodium album); details: foliage application after 14-day growth, evaluated three weeks after application
How it was run: as §4

chickweed = assay: Test Example 5: herbicidal effect by foliage application, plastic box (Table 20, symbol P); format: in vivo, common chickweed (Stellaria media); details: foliage application after 14-day growth, evaluated three weeks after application
How it was run: as §4

persian speedwell = assay: Test Example 5: herbicidal effect by foliage application, plastic box (Table 20, symbol R); format: in vivo, Persian speedwell (Veronica persica); details: foliage application after 14-day growth, evaluated three weeks after application
How it was run: as §4

[9] = amount of applied herbicide 320 g/ha

CCCC(=O)Oc1c(C)nn(C)c(=O)c1-c1c(-c2ccc(Cl)cc2)sc2c(F)cccc12 [4-041]
Herbicidal effect, A: late watergrass (late watergrass [1]): 3 (Herbicidal rate of 40% or more and less than 70%)
Herbicidal effect, B: Japanese bulrush (Japanese bulrush [2]): 0 (Herbicidal rate of 5% or less (almost no effect))
Herbicidal effect, C: oval-leafed pondweed (oval-leafed pondweed [3]): 0 (Herbicidal rate of 5% or less (almost no effect))
herbicidal effect rating, A: late watergrass (late watergrass [4]): 0 (Herbicidal rate of 5% or less (almost no effect))
herbicidal effect rating, B: Japanese bulrush (Japanese bulrush [5]): 3 (Herbicidal rate of 40% or more and less than 70%)
herbicidal effect rating, C: oval-leafed pondweed (oval-leafed pondweed [6]): 0 (Herbicidal rate of 5% or less (almost no effect))
herbicidal effect on barnyard grass (H) (barnyard grass [7]): 5 (Herbicidal rate of 90% or more (almost completely withered))
herbicidal effect on Chinese sprangletop (D) (Chinese sprangletop): 4 (Herbicidal rate of 70% or more and less than 90%)
herbicidal effect on rice flat sedge (E) (rice flat sedge): 5 (Herbicidal rate of 90% or more (almost completely withered))
herbicidal effect on F: southern crabgrass (evaluation grade 0-5) (southern crabgrass; 320 g/ha): 0 (Herbicidal rate of 5% or less (almost no effect))
herbicidal effect on G: green foxtail (evaluation grade 0-5) (green foxtail; 320 g/ha): 3 (Herbicidal rate of 40% or more and less than 70%)
herbicidal effect on H: barnyard grass (evaluation grade 0-5) (barnyard grass [8]; 320 g/ha): 4 (Herbicidal rate of 70% or more and less than 90%)
herbicidal effect on I: wild oat (evaluation grade 0-5) (wild oat; 320 g/ha): 3 (Herbicidal rate of 40% or more and less than 70%)
herbicidal effect on J: blackgrass (evaluation grade 0-5) (blackgrass; 320 g/ha): 1 (Herbicidal rate of 5% or more and less than 20%)
herbicidal effect on K: Italian ryegrass (evaluation grade 0-5) (Italian ryegrass; 320 g/ha): 3 (Herbicidal rate of 40% or more and less than 70%)
herbicidal effect on L: windgrass (evaluation grade 0-5) (windgrass; 320 g/ha): 4 (Herbicidal rate of 70% or more and less than 90%)
herbicidal effect on M: velvetleaf (evaluation grade 0-5) (velvetleaf; 320 g/ha): 5 (Herbicidal rate of 90% or more (almost completely withered))
herbicidal effect on N: redroot pigweed (evaluation grade 0-5) (redroot pigweed; 320 g/ha): 5 (Herbicidal rate of 90% or more (almost completely withered))
herbicidal effect on O: lambsquarters (evaluation grade 0-5) (lambsquarters; 320 g/ha): 3 (Herbicidal rate of 40% or more and less than 70%)
herbicidal effect on P: chickweed (evaluation grade 0-5) (chickweed; 320 g/ha): 5 (Herbicidal rate of 90% or more (almost completely withered))
herbicidal effect on R: persian speedwell (evaluation grade 0-5) (persian speedwell; 320 g/ha): 5 (Herbicidal rate of 90% or more (almost completely withered))

Cc1nn(C)c(=O)c(-c2c(-c3ccc(OC4CCCCO4)cc3)sc3cc(F)c(F)cc23)c1O (stereo not drawn) [5-024]
Herbicidal effect, A: late watergrass (late watergrass [1]): 3 (Herbicidal rate of 40% or more and less than 70%)
Herbicidal effect, B: Japanese bulrush (Japanese bulrush [2]): 0 (Herbicidal rate of 5% or less (almost no effect))
Herbicidal effect, C: oval-leafed pondweed (oval-leafed pondweed [3]): 5 (Herbicidal rate of 90% or more (almost completely withered))
herbicidal effect rating, A: late watergrass (late watergrass [4]): 0 (Herbicidal rate of 5% or less (almost no effect))
herbicidal effect rating, B: Japanese bulrush (Japanese bulrush [5]): 2 (Herbicidal rate of 20% or more and less than 40%)
herbicidal effect rating, C: oval-leafed pondweed (oval-leafed pondweed [6]): 0 (Herbicidal rate of 5% or less (almost no effect))
herbicidal effect on barnyard grass (H) (barnyard grass [7]): 4 (Herbicidal rate of 70% or more and less than 90%)
herbicidal effect on Chinese sprangletop (D) (Chinese sprangletop): 3 (Herbicidal rate of 40% or more and less than 70%)
herbicidal effect on rice flat sedge (E) (rice flat sedge): 0 (Herbicidal rate of 5% or less (almost no effect))
Herbicidal effect by foliage application, F: southern crabgrass (southern crabgrass; [9]): 4 (Herbicidal rate of 70% or more and less than 90%)
Herbicidal effect by foliage application, G: green foxtail (green foxtail; [9]): 3 (Herbicidal rate of 40% or more and less than 70%)
Herbicidal effect by foliage application, H: barnyard grass (barnyard grass [8]; [9]): 3 (Herbicidal rate of 40% or more and less than 70%)
Herbicidal effect by foliage application, I: wild oat (wild oat; [9]): 0 (Herbicidal rate of 5% or less (almost no effect))
Herbicidal effect by foliage application, J: blackgrass (blackgrass; [9]): 1 (Herbicidal rate of 5% or more and less than 20%)
Herbicidal effect by foliage application, K: Italian ryegrass (Italian ryegrass; [9]): 0 (Herbicidal rate of 5% or less (almost no effect))
Herbicidal effect by foliage application, L: windgrass (windgrass; [9]): 2 (Herbicidal rate of 20% or more and less than 40%)
Herbicidal effect by foliage application, M: velvetleaf (velvetleaf; [9]): 3 (Herbicidal rate of 40% or more and less than 70%)
Herbicidal effect by foliage application, N: redroot pigweed (redroot pigweed; [9]): 5 (Herbicidal rate of 90% or more (almost completely withered))
Herbicidal effect by foliage application, O: lambsquarters (lambsquarters; [9]): 5 (Herbicidal rate of 90% or more (almost completely withered))
Herbicidal effect by foliage application, P: chickweed (chickweed; [9]): 5 (Herbicidal rate of 90% or more (almost completely withered))
Herbicidal effect by foliage application, R: persian speedwell (persian speedwell; [9]): 5 (Herbicidal rate of 90% or more (almost completely withered))
